This is an account of results in patent US4560693A, “[1,3]-Dioxolo[4,5-f]benzimidazoles and [1,4]-dioxino[2,3-f]benzimidazoles” (Byk Gulden Lomberg Chemische Fabrik GmbH, priority 1983, dated 1985).

Structures are written as SMILES.

Assay [1] relates to gastric lesion formation (rat stomach). The assay can be described thus: Antiulcerogenic action / protective effect on the stomach (modified Shay rat: pyloric ligature plus oral acetylsalicylic acid). In kind it is in vivo. The conditions noted are these: rats, perorally, 1 h before pyloric ligature, 100 mg/kg acetylsalicylic acid orally, dose reducing lesion index by 50% vs control, 4 h, read-out: Protective effect on the stomach: Inhibition of the lesion index, ED50. As to the method:
(§1) In these experiments, the compounds according to the invention were compared with prior art compounds (A-D) of UK Patent Application GB No. 2 082 580. The compounds investigated are numbered as follows:
(§2) The influence of the compounds according to the invention on gastric lesion formation induced by pyloric ligature (4 h; so-called Shay rat) and oral administration of 100 mg/kg of acetylsalicylic acid, and the gastric secretion (HCl) in the course of 4 h in rats is shown in the following table.
(§3) *ED25 und ED50 = dose which reduces the lesion index or the HCl secretion
(§4) (4h) in the rat stomach by 25 and, respectively, 50% in the treated group
(§5) in comparison with the control group.
The antiulcerogenic action was tested by the so-called Shay rat method:
(§6) Ulcers are caused in rats which have been fasted for 24 hours (female, 180-200 g, 4 animals per cage on a high grid) by pyloric ligature (under diethyl ether anesthesia) and oral administration of 100 mg/10 ml/kg of acetylsalicylic acid. The substances to be tested are administered orally (10 ml/kg) one hour before the pyloric ligature. The wound is closed by means of Michel clamps. 4 hours thereafter, the animals are sacrificed under ether anesthesia by Atlas dislocation and resection of the stomach. The stomach is opened longitudinally and attached to a cork plate, after the amount of gastric juice secreted (volume) and later its HCl content (titration with sodium hydroxide solution) have first been determined; the number and size (=diameter) of the ulcers present are determined under a stereomicroscope at 10-fold magnification. The product of the degree of severity (according to the following points scale) and number of ulcers serves as the individual lesion index.
Ulcer diameter 0.1-1.4 mm: 1
(§7) The reduction in the average lesion index of each treated group compared with the control group (=100%) serves as a measure of the antiulcerogenic effect.

The test system of a further assay is gastric secretion (HCl). The assay can be described thus: Inhibition of gastric secretion (HCl) in the Shay rat over 4 h. In kind it is in vivo. The conditions noted are these: rats; for ED25 / ED50: Rattus norvegicus, po, perorally; for ED25: dose reducing HCl secretion (4 h) by 25% vs control; for ED50: dose reducing HCl secretion (4 h) by 50% vs control; for Gastric secretion: % inhibition of HCl secretion: after administration of the antiulcerous ED50, 4 h. How it is done:
as §1, §2, §3, §4, §5
**after administration of the antiulcerous ED50.
as §6, §7

One may read the ED50 as the midpoint of the dose-response relation. In the case of `COc1cc(C[S+]([O-])c2nc3cc4c(cc3[nH]2)OC(F)(F)O4)ncc1C` (stereo not drawn) [Serial No. 8, 2,2-difluoro-6-[(4-methoxy-5-methyl-2-pyridyl)methylsulfinyl]-5H-[1,3]-dioxolo[4,5-f]benzimidazole], the ED50 in assay [1] was 0.5 mg/kg. For the same molecule, in the assay with gastric secretion (HCl), the ED25 amounted to 1 mg/kg, the ED50 came to 2.5 mg/kg and the “Gastric secretion: % inhibition of HCl secretion” value (“Gastric secretion: % inhibition” below) was determined as 17%.

In the case of `COc1ccnc(C[S+]([O-])c2nc3cc4c(cc3[nH]2)OC(F)(F)O4)c1` (stereo not drawn) [Serial No. 1, 2,2-Difluoro-6-[(4-methoxy-2-pyridyl)methylsulfinyl]-5H--[1,3]-dioxolo[4,5-f]benzimidazole], the 50% effective dose (ED50) in assay [1] was 0.6 mg/kg. Also, in the assay with gastric secretion (HCl), the ED25 was found to be 0.6 mg/kg, the 50% effective dose (ED50) was 0.9 mg/kg and the “Gastric secretion: % inhibition” value worked out at 25%.

For the molecule `COc1ccnc(C[S+]([O-])c2nc3cc4c(cc3[nH]2)OC(F)C(F)(F)O4)c1C` (stereo not drawn) [Serial No. 5, 6,6,7-trifluoro-6,7-dihydro-2-[(4-methoxy-3-methyl-2-pyridyl)methylsulfinyl]-1H-[1,4]-dioxino[2,3-f]benzimidazole], the 50% effective dose (ED50) in assay [1] stood at 0.35 mg/kg. Besides, in the assay with gastric secretion (HCl), the ED25 was less than 0.3 mg/kg, the ED50 turned out to be 0.6 mg/kg and the “Gastric secretion: % inhibition” value stood at 35%.

Regarding `COc1c(C)cnc(C[S+]([O-])c2nc3cc4c(cc3[nH]2)OC(F)C(F)(F)O4)c1C` (stereo not drawn) [Serial No. 9, 6,6,7-trifluoro-6,7-dihydro-2-[(4-methoxy-3,5-dimethyl-2-pyridyl)methylsulfinyl]-1H-[1,4]-dioxino[2,3-f]benzimidazole], the ED50 in assay [1] came to 0.5 mg/kg. Moreover, in the assay on gastric secretion (HCl), the ED25 worked out at 0.7 mg/kg, the 50% effect level (ED50) was put at a dose of 1 mg/kg and the “Gastric secretion: % inhibition” value worked out at 15%.

With `COc1ccnc(C[S+]([O-])c2nc3cc4c(cc3[nH]2)OC(F)C(F)(F)O4)c1` (stereo not drawn) [Serial No. 3, 6,6,7-Trifluoro-6,7-dihydro-2-[(4-methoxy-2-pyridyl)methylsulfinyl]-1H-[1,4]-dioxino[2,3-f]benzimidazole], the ED50 in assay [1] is 0.45 mg/kg. For the same molecule, in the assay on gastric secretion (HCl), the ED25 was found to be 0.5 mg/kg, the 50% effect level (ED50) was put at a dose of 1.4 mg/kg and the “Gastric secretion: % inhibition” value is on record as 23%.

Turning to `COc1ccnc(CSc2nc3cc4c(cc3[nH]2)OC(F)(F)C(F)O4)c1` (stereo not drawn) [Serial No. 4, 6,6,7-Trifluoro-6,7-dihydro-2-[(4-methoxy-2-pyridyl)-methylthio]-1H--[1,4]-dioxino[2,3-f]benzimidazole], the ED50 in assay [1] was determined as 0.6 mg/kg. In addition, in the assay on gastric secretion (HCl), the ED25 amounted to 1 mg/kg, the 50% effect level (ED50) was put at a dose of 1.7 mg/kg and the “Gastric secretion: % inhibition” value came out at 25%.

Regarding `COc1ccnc(C[S+]([O-])c2nc3cc4c(cc3[nH]2)OCO4)c1` (stereo not drawn) [Serial No. B, 6-[(4-Methoxy-2-pyridyl)methylsulffinyl]-5H--[1,3]-dioxolo-[4,5-f]benzimidazole, reference compound], the ED50 in assay [1] was roughly 5 mg/kg.

As for `COc1ccnc(CSc2nc3cc4c(cc3[nH]2)OCCO4)c1` [Serial No. C, 6,7-Dihydro-2-[(4-methoxy-2-pyridyl)methylthio]-1H--[1,4]-dioxino[2,3-f]benzimidazole, reference compound], in assay [1], the median effective dose (ED50) was determined as 30 mg/kg. Moreover, in the assay on gastric secretion (HCl), the ED25 is greater than 30 mg/kg, the ED50 is greater than 30 mg/kg and the “Gastric secretion: % inhibition” value came out at 19%.

As for `COc1ccnc(C[S+]([O-])c2nc3cc4c(cc3[nH]2)OCCO4)c1` (stereo not drawn) [Serial No. D, 6,7-Dihydro-2-[(4-methoxy-2-pyridyl)methylsulfinyl]-1H--[1,4]-dioxino[2,3-f]benzimidazole, reference compound], in assay [1], the ED50 turned out to be 30 mg/kg. Moreover, in the assay on gastric secretion (HCl), the ED25 was greater than 30 mg/kg, the ED50 is greater than 30 mg/kg and the “Gastric secretion: % inhibition” value was 0%.

In the case of `COc1ccnc(CSc2nc3cc4c(cc3[nH]2)OCO4)c1` [Serial No. A, 6-[(4-Methoxy-2-pyridyl)methylthio]-5H--[1,3]-dioxolo-[4,5-f]benzimidazole, reference compound], the 50% effective dose (ED50) in assay [1] is greater than 10 mg/kg. Besides, the ED25 with gastric secretion (HCl) is greater than 10 mg/kg.

`COc1ccnc(CSc2nc3cc4c(cc3[nH]2)OC(F)(F)O4)c1C` [Serial No. 7, 2,2-difluoro-6-[(4-methoxy-3-methyl-2-pyridyl)methylthio]-5H-[1,3]-dioxolo[4,5-f]benzimidazole]: in assay [1], the ED50 is 0.6 mg/kg. Moreover, in the assay on gastric secretion (HCl), the ED25 came to 0.6 mg/kg, the ED50 is greater than 1 mg/kg and the “Gastric secretion: % inhibition” value is recorded as 25%.

As for `COc1ccnc(C[S+]([O-])c2nc3cc4c(cc3[nH]2)OC(F)(F)C(F)(Cl)O4)c1C` (stereo not drawn) [Serial No. 10, 6-Chloro-6,7,7-trifluoro-6,7-dihydro-2-[(4-methoxy-3-methyl-2-pyridyl)methylsulfinyl]-1H-[1,4]-dioxino[2,3-f]benzimidazole], in assay [1], the ED50 is 0.4 mg/kg. In the assay on gastric secretion (HCl), the ED25 was found to be 0.4 mg/kg, the 50% effect level (ED50) was put at a dose of 0.7 mg/kg and the “Gastric secretion: % inhibition” value stood at 25%.

For `COc1ccnc(CSc2nc3cc4c(cc3[nH]2)OC(F)C(F)(F)O4)c1C` (stereo not drawn) [Serial No. 6, 6,6,7-trifluoro-6,7-dihydro-2-[(4-methoxy-3-methyl-2-pyridyl)methylthio]-1H-[1,4]-dioxino[2,3-f]benzimidazole], the ED50 in assay [1] amounted to 0.6 mg/kg. In the assay on gastric secretion (HCl), the ED25 was found to be 0.7 mg/kg, the 50% effective dose (ED50) was found to be 1.4 mg/kg and the “Gastric secretion: % inhibition” value was found to be 20%.

`COc1ccnc(C[S+]([O-])c2nc3cc4c(cc3[nH]2)OC(F)(F)O4)c1C` (stereo not drawn) [Serial No. 2, 2,2-difluoro-6-[(4-methoxy-3-methyl-2-pyridyl)methylsulfinyl]-5H-[1,3]-dioxolo-[4,5-f]benzimidazole]: the ED50 in assay [1] is 0.4 mg/kg. Moreover, in the assay on gastric secretion (HCl), the ED25 was less than 0.3 mg/kg, the 50% effect level (ED50) was put at a dose of 0.6 mg/kg and the “Gastric secretion: % inhibition” value is on record as 30%.
